{"source": "patent US20250127907A1", "about": "“PARP INHIBITORS” (Stablix, Inc., priority 2023, published 2025)", "key": {"[1]": {"system": "Poly/Mono-ADP Ribose in U2OS cells", "experiment": "PAR in cell western assay (parylation) in U2OS cells", "format": "cell-based", "settings": "read-out: Parylation (U2OS)", "protocol": "U2OS cells are seeded at 2667 cells per well in 24 ul medium into poly-D lysine-coated 384 well plate and incubated in the TC incubator for O/N\nThe next day, test comps are diluted in a source plate and 6 μL of the diluted comp is added to the cell plate; mixed well and incubated for 6 hrs. DNA damage is induced with 2 mM H2O2 for 10 min. After discarding the medium, cells are fixed in ice cold Methanol at for 20 min at −20C. After a wash step at room temperature, cells are permeabilized with 0.05% NP-40 in PBS for 10 min, followed by wash steps. Cells are blocked with 1% BSA, at room temperature for 1 hr. Cells are stained with anti mono/polyADP ribose antibody (E6F6A, Cell signaling, 1:5000) in 1×PBS/1% BSA/0.05% Tween o/n at 4C.\nNext Day, cells are washed and incubated with anti-Rabbit 800CV (Licor antibody, 1:500) and CellTag 700 (Licor, 1:800) in 1×PBS/1% BSA/0.05% Tween for 1 h. After washing, plates are scanned using LICOR and are quantified.\nParylation inhibition is reported as % control inhibition.\n(§1) The letter codes for the PARP1-enzyme assay include: A (<1 nM), B (>1-10 nM), C (>10-100 nM), D (>100-1000 nM), E (>1000 nM), and “-” is not tested. The letter codes for the PARP trapping assay, and parylation assay include: A (<10 nM), B (>10-100 nM), C (>100-1000 nM), […], E (>10000 nM), and “-” is not tested."}, "PARP1 [2]": {"molecular_target": "T1, PARP1 (Homo sapiens, UniProt P09874)", "experiment": "PARP1-enzyme assay (NAD/NADH-Glo biochemical assay)", "settings": "recombinant PARP1, NAD+ consumption", "protocol": "The PARP enzyme catalyzes the transfer of ADP-Ribose from NAD+ onto PAR chains/histone substrates. The catalytic cycle is monitored indirectly with the NAD/NADH-Glo Assay kit from Promega. […] NAD+ consumed is determined by comparison to the no enzyme control.\n• Recombinant PARP1 • NAD+/NAHD-Glow assay Kit • Activated DNA, 10 μg/mL • NAD+(Nicotinamide Adenine Dinucleotide), 500 nM • Protein substrate for PARP1: Core Histone from chicken, 10 μg/mL\nas §1"}, "A2780 cells": {"system": "A2780 cells", "experiment": "Cell proliferation assay (A2780)", "format": "cell-based", "settings": "7 days", "protocol": "(§2) Cells are counted, diluted to desired density and 40 μL of cell suspension is added into each 384-well tissue-culture treated plates. Plates are incubated in Tissue Culture incubator at 37° C./5% C02 overnight.\n(§3) Next day, 40 nl test compounds that are prepared from source plates are transferred to the seeded cells from overnight. Plates are incubated at 37° C./5% C02 for a total of 7 days. After 7-day incubation, plates are equilibrated to room temperature and 30 ul of Cell Counting-Lite is added to each well for a 30 min incubation followed by reading on EnVision.\n(§4) The letter codes for the cell proliferation assay in A2780, HCC1806, and MDA-MB-436 cells include: A (<10 nM), B (>10-100 nM), C (>100-1000 nM), D (>1000-10000 nM), E (>10000 nM), and “-” is not tested."}, "PARP1 [3]": {"molecular_target": "T1, PARP1", "experiment": "PARP trapping assay in U2OS cells", "format": "cell-based", "parameters": "endogenous in cells; host or cells: U2OS", "protocol": "U2OS cells are seeded at 15,000 cells/well in 90 ul medium and incubated in the TC incubator for overnight.\nNext day, test compounds are prepared in a source plate along with addition of DNA damage reagent MMS simultaneously and 10 ul of the diluted mixture is added to the cell plate and incubated for 4 hrs under T/C conditions.\nAfter 4 hrs, following aspiration and washing, add 100 ul of cold cytoskeleton removal buffer (0.5% Triton X-100) and incubated for 10 min. At the end of incubation, slowly the buffer is removed, and cells are fixed with ice cold MeOH for 15 min at −20C. Followed by wash steps, cells are blocked with 1×PBS/3% BSA/0.05% Tween for 1 h at room temperature.\nCells are stained with anti PARP1 antibody (abeam ab227244, 1:1000), in 1×PBS/1% BSA overnight at 4C.\nWash and add DAPI, scan cells in Celigo.\nData Analysis: DAPI staining is used to segment nuclei and AF488 fluorescence intensity per nucleus is measured.\nas §1"}, "MDA-MB-436 cells": {"system": "MDA-MB-436 cells", "experiment": "Cell proliferation assay (MDA-MB-436)", "format": "cell-based", "settings": "7 days", "protocol": "as §2, §3, §4"}, "[4]": {"settings": "Homo sapiens, U2OS cells, 6 hrs, 2 mM H2O2"}, "[5]": {"settings": "U2OS cells, MMS, 4 hrs, read-out: PARP Trapping (U2OS)"}}, "note": "pIC50: −log10 of the molar value. Read-outs that look alike come from different tables or passages of the source.", "data": [{"smiles": "CCc1cccc(-c2cnc(C(=O)N3CCC(CN4CCN(CC(=O)N5CCN(C(=O)c6cc(Cc7n[nH]c(=O)c8ccccc78)ccc6F)CC5)CC4)CC3)c(NC(=O)CNCc3cccc(C)c3)c2)c1", "note": "[Compound I-61]", "values": [{"measurement": "pIC50", "setting": "[1]; [4]", "value": "6.00 to 7.00"}, {"measurement": "pIC50", "setting": "PARP1 [2]", "value": "> 9.00"}, {"measurement": "pIC50", "setting": "A2780 cells; Homo sapiens, 168 h", "value": "6.00 to 7.00"}, {"measurement": "pIC50", "setting": "PARP1 [3]; [5]", "value": "7.00 to 8.00"}, {"measurement": "pIC50", "setting": "MDA-MB-436 cells; Homo sapiens, 168 h", "value": "7.00 to 8.00"}]}, {"smiles": "CCc1cccc(-c2cnc(C(=O)NCCCCCNCC(=O)N3CCN(C(=O)c4cc(Cc5n[nH]c(=O)c6ccccc56)ccc4F)CC3)c(NC(=O)CNCc3cccc(C)c3)c2)c1", "note": "[Compound I-64]", "values": [{"measurement": "pIC50", "setting": "[1]; [4]", "value": "6.00 to 7.00"}, {"measurement": "pIC50", "setting": "PARP1 [2]", "value": "> 9.00"}, {"measurement": "pIC50", "setting": "A2780 cells; Homo sapiens, 168 h", "value": "6.00 to 7.00"}, {"measurement": "pIC50", "setting": "PARP1 [3]; [5]", "value": "6.00 to 7.00"}, {"measurement": "pIC50", "setting": "MDA-MB-436 cells; Homo sapiens, 168 h", "value": "7.00 to 8.00"}]}, {"smiles": "CCOc1cc(OC)ccc1CNCC(=O)N1CCC[C@H](c2cccc(C(=O)N[C@@H](C(=O)N3CCC(CN4CCN(CC(=O)N5CCN(C(=O)c6cc(Cc7n[nH]c(=O)c8ccccc78)ccc6F)CC5)CC4)CC3)C3CCCCC3)c2)C1", "note": "[Compound I-168]", "values": [{"measurement": "pIC50", "setting": "[1]; U2OS cells, 6 hrs, 2 mM H2O2", "value": "6.00 to 7.00"}, {"measurement": "pIC50", "setting": "PARP1 [2]", "value": "> 9.00"}, {"measurement": "pIC50", "setting": "A2780 cells", "value": "7.00 to 8.00"}, {"measurement": "pIC50", "setting": "PARP1 [3]; [5]", "value": "7.00 to 8.00"}, {"measurement": "pIC50", "setting": "MDA-MB-436 cells", "value": "> 8.00"}]}, {"smiles": "O=C(N[C@@H](C(=O)N1CCN(CC2CCN(CC(=O)N3CCN(C(=O)c4cc(Cc5n[nH]c(=O)c6ccccc56)ccc4F)CC3)CC2)CC1)C1CCCCC1)c1cccc(C2CCCN(C(=O)CNC3CC3)C2)c1", "note": "(stereo partly drawn) [Compound I-183]", "values": [{"measurement": "pIC50", "setting": "[1]; [4]", "value": "6.00 to 7.00"}, {"measurement": "pIC50", "setting": "PARP1 [2]", "value": "> 9.00"}, {"measurement": "pIC50", "setting": "A2780 cells; Homo sapiens, 168 h", "value": "6.00 to 7.00"}, {"measurement": "pIC50", "setting": "PARP1 [3]; [5]", "value": "6.00 to 7.00"}, {"measurement": "pIC50", "setting": "MDA-MB-436 cells; Homo sapiens, 168 h", "value": "7.00 to 8.00"}]}, {"smiles": "O=C(N[C@@H](C(=O)N1CCN(CC2CCN(CC(=O)N3CCN(C(=O)c4cc(Cc5n[nH]c(=O)c6ccccc56)ccc4F)CC3)CC2)CC1)C1CCCCC1)c1cccc(C2CCCN(C(=O)CNCc3ccc(F)cc3F)C2)c1", "note": "(stereo partly drawn) [Compound I-184]", "values": [{"measurement": "pIC50", "setting": "[1]; [4]", "value": "6.00 to 7.00"}, {"measurement": "pIC50", "setting": "PARP1 [2]", "value": "> 9.00"}, {"measurement": "pIC50", "setting": "A2780 cells; Homo sapiens, 168 h", "value": "6.00 to 7.00"}, {"measurement": "pIC50", "setting": "PARP1 [3]; [5]", "value": "6.00 to 7.00"}, {"measurement": "pIC50", "setting": "MDA-MB-436 cells; Homo sapiens, 168 h", "value": "7.00 to 8.00"}]}, {"smiles": "CCc1cccc(-c2cnc(C(=O)N3CCN(CC4CCN(CC(=O)N5CCN(C(=O)c6cc(Cc7n[nH]c(=O)c8ccccc78)ccc6F)CC5)CC4)CC3)c(NC(=O)CNCc3ccncn3)c2)c1", "note": "[Compound I-238]", "values": [{"measurement": "pIC50", "setting": "[1]; [4]", "value": "6.00 to 7.00"}, {"measurement": "pIC50", "setting": "PARP1 [2]", "value": "> 9.00"}, {"measurement": "pIC50", "setting": "A2780 cells; Homo sapiens, 168 h", "value": "5.00 to 6.00"}, {"measurement": "pIC50", "setting": "PARP1 [3]; [5]", "value": "6.00 to 7.00"}, {"measurement": "pIC50", "setting": "MDA-MB-436 cells; Homo sapiens, 168 h", "value": "7.00 to 8.00"}]}, {"smiles": "O=C(N[C@@H](C(=O)N1CCN(CC2CCN(CC(=O)N3CCN(C(=O)c4cc(Cc5n[nH]c(=O)c6ccccc56)ccc4F)CC3)CC2)CC1)C1CCCCC1)c1cccc([C@H]2CCCN(C(=O)CNCc3ccc(F)cc3F)C2)c1", "note": "[Compound I-294]", "values": [{"measurement": "pIC50", "setting": "[1]; [4]", "value": "7.00 to 8.00"}, {"measurement": "pIC50", "setting": "PARP1 [2]", "value": "8.00 to 9.00"}, {"measurement": "pIC50", "setting": "A2780 cells; Homo sapiens, 168 h", "value": "6.00 to 7.00"}, {"measurement": "pIC50", "setting": "PARP1 [3]; [5]", "value": "6.00 to 7.00"}, {"measurement": "pIC50", "setting": "MDA-MB-436 cells; Homo sapiens, 168 h", "value": "7.00 to 8.00"}]}, {"smiles": "O=C(N[C@@H](C(=O)N1CCN(CC2CCN(CC(=O)N3CCN(C(=O)c4cc(Cc5n[nH]c(=O)c6ccccc56)ccc4F)CC3)CC2)CC1)C1CCCCC1)c1cc(C2CCCN(C(=O)CNC3CC3)C2)ccc1F", "note": "(stereo partly drawn) [Compound I-323]", "values": [{"measurement": "pIC50", "setting": "[1]; Homo sapiens, U2OS, 6 h", "value": "6.00 to 7.00"}, {"measurement": "pIC50", "setting": "PARP1 [2]", "value": "> 9.00"}, {"measurement": "pIC50", "setting": "A2780 cells; Homo sapiens, 168 h", "value": "6.00 to 7.00"}, {"measurement": "pIC50", "setting": "PARP1 [3]", "value": "6.00 to 7.00"}, {"measurement": "pIC50", "setting": "MDA-MB-436 cells; Homo sapiens, 168 h", "value": "> 8.00"}]}, {"smiles": "CCc1cccc(-c2cnc(C(=O)N3CCC(CN4CCN(CC(=O)N5CCN(C(=O)c6cc(Cc7n[nH]c(=O)c8ccccc78)ccc6F)CC5)CC4)CC3)c(NC(=O)CNCc3ccc(F)cc3F)c2)c1", "note": "[Compound I-331]", "values": [{"measurement": "pIC50", "setting": "[1]; [4]", "value": "7.00 to 8.00"}, {"measurement": "pIC50", "setting": "PARP1 [2]", "value": "> 9.00"}, {"measurement": "pIC50", "setting": "A2780 cells; Homo sapiens, 168 h", "value": "7.00 to 8.00"}, {"measurement": "pIC50", "setting": "PARP1 [3]; [5]", "value": "6.00 to 7.00"}, {"measurement": "pIC50", "setting": "MDA-MB-436 cells; Homo sapiens, 168 h", "value": "7.00 to 8.00"}]}]}
